Converted amounts (≈) assume the structure as drawn. “And” between values parts separate entries of the source, which are not always exact repeats. Identical values can stand only once.
System: Campylobacter novel strains
Test: Antimicrobial susceptibility testing by agar dilution method (MIC);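 also: agar dilution MIC on HBA, used in place of the BSAC-recommended Iso-sensitest agar, across a panel of 14 antimicrobials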
Conditions: for Distribution (%) of MIC (μg/ml) 0.03: % of novel strains with MIC 0.03 μg/ml; for Distribution (%) of MIC (μg/ml) 0.06: % of novel strains with MIC 0.06 μg/ml; for Distribution (%) of MIC (μg/ml) 0.13: % of novel strains with MIC 0.13 μg/ml; for Distribution (%) of MIC (μg/ml) 0.25: % of novel strains with MIC 0.25 μg/ml; for Distribution (%) of MIC (μg/ml) 1: % of novel strains with MIC 1 μg/ml; for Distribution (%) of MIC (μg/ml) 2: % of novel strains with MIC 2 μg/ml; for Distribution (%) of MIC (μg/ml) 4: % of novel strains with MIC 4 μg/ml; for Distribution (%) of MIC (μg/ml) 8: % of novel strains with MIC 8 μg/ml; for Distribution (%) of MIC (μg/ml) 32: % of novel strains with MIC 32 μg/ml; for Distribution (%) of MIC (μg/ml) 64: % of novel strains with MIC 64 μg/ml
[1] = Campylobacter novel strains, agar dilution on HBA

Method: Antimicrobial susceptibility testing was performed using the agar dilution method for the Campylobacter novel strains against 14 antimicrobials. […] As the strains were unable to grow on the Iso-sensitest agar (ISA) recommended by the BSAC guidelines, HBA (Table 1) was used as an alternative media.

CC1(C)S[C@@H]2[C@H](NC(=O)[C@H](N)c3ccccc3)C(=O)N2[C@H]1C(=O)O [Ampicillin]
MIC50 (Campylobacter): 1 µg/mL (≈ 2.86 µM) | MIC90 (Campylobacter): 2 µg/mL (≈ 5.72 µM)

CCN1CCN(C(=O)N[C@@H](C(=O)N[C@@H]2C(=O)N3C(C(=O)O)=C(CSc4nnnn4C)CS[C@H]23)c2ccc(O)cc2)C(=O)C1=O [Cefoperazone]
MIC50 (Campylobacter): 64 µg/mL (≈ 99.1 µM) | MIC90 (Campylobacter): 64 µg/mL (≈ 99.1 µM)

O=C(N[C@H](CO)[C@H](O)c1ccc([N+](=O)[O-])cc1)C(Cl)Cl [Chloramphenicol]
MIC50 (Campylobacter): 4 µg/mL (≈ 12.4 µM) | MIC90 (Campylobacter): 8 µg/mL (≈ 24.8 µM)

O=C(O)c1cn(C2CC2)c2cc(N3CCNCC3)c(F)cc2c1=O [Ciprofloxacin]
MIC50 (Campylobacter): 0.06 µg/mL (≈ 0.181 µM) | MIC90 (Campylobacter): 0.06 µg/mL (≈ 0.181 µM)

CC[C@H]1OC(=O)[C@H](C)[C@@H](O[C@H]2C[C@@](C)(OC)[C@@H](O)[C@H](C)O2)[C@H](C)[C@@H](O[C@@H]2O[C@H](C)C[C@H](N(C)C)[C@H]2O)[C@](C)(O)C[C@@H](C)C(=O)[C@H](C)[C@@H](O)[C@]1(C)O [Ertythromycin, Erythromycin]
MIC50 (Campylobacter): 1 µg/mL (≈ 1.36 µM) | MIC90 (Campylobacter): 2 µg/mL (≈ 2.73 µM)

NC[C@H]1O[C@H](O[C@H]2[C@H](O)[C@@H](O[C@H]3O[C@H](CO)[C@@H](O)[C@H](N)[C@H]3O)[C@H](N)C[C@@H]2N)[C@H](O)[C@@H](O)[C@@H]1O [Kanamycin]
MIC50 (Campylobacter): 4 µg/mL (≈ 8.26 µM) | MIC90 (Campylobacter): 4 µg/mL (≈ 8.26 µM)

[H]/N=C(/N)N[C@H]1[C@H](O)[C@@H](O)[C@H](O[C@@H]2O[C@@H](C)[C@](O)(C=O)[C@H]2O[C@@H]2O[C@@H](CO)[C@H](O)[C@@H](O)[C@@H]2NC)[C@@H](N/C(N)=N\[H])[C@@H]1O [Streptomycin]
MIC50 (Campylobacter): 1 µg/mL (≈ 1.72 µM) | MIC90 (Campylobacter): 1 µg/mL (≈ 1.72 µM)

CN(C)[C@@H]1C(O)=C(C(N)=O)C(=O)[C@@]2(O)C(O)=C3C(=O)c4c(O)cccc4[C@@](C)(O)[C@H]3C[C@@H]12 [Tetracycline]
MIC50 (Campylobacter): 1 µg/mL (≈ 2.25 µM) | MIC90 (Campylobacter): 64 µg/mL (≈ 144 µM)

C=C[C@]1(C)C[C@@H](OC(=O)CSCCN(CC)CC)[C@]2(C)[C@H](C)CC[C@]3(CCC(=O)[C@H]32)[C@@H](C)[C@@H]1O [Tiamulin]
MIC50 (Campylobacter): 2 µg/mL (≈ 4.05 µM) | MIC90 (Campylobacter): 2 µg/mL (≈ 4.05 µM)

Colistin
Distribution (%) of MIC (μg/ml) 0.03 (agar dilution on HBA): 0% | Distribution (%) of MIC (μg/ml) 0.06 (agar dilution on HBA): 0% | Distribution (%) of MIC (μg/ml) 0.13 (agar dilution on HBA): 0% | Distribution (%) of MIC (μg/ml) 0.25 (agar dilution on HBA): 0% | Distribution (%) of MIC (μg/ml) 0.50 (% of novel strains with MIC 0.50 μg/ml, agar dilution on HBA): 0% | Distribution (%) of MIC (μg/ml) 1 (agar dilution on HBA): 0% | Distribution (%) of MIC (μg/ml) 2 (agar dilution on HBA): 0% | Distribution (%) of MIC (μg/ml) 4 (agar dilution on HBA): 8.70% | Distribution (%) of MIC (μg/ml) 8 (agar dilution on HBA): 73.91% | Distribution (%) of MIC (μg/ml) 32 (agar dilution on HBA): 13.04% | Distribution (%) of MIC (μg/ml) 64 (agar dilution on HBA): 0% | MIC50 [1]: 8 µg/mL | MIC90 [1]: 32 µg/mL

Gentamycin
Distribution (%) of MIC (μg/ml) 0.03 (agar dilution on HBA): 0% | Distribution (%) of MIC (μg/ml) 0.06 (agar dilution on HBA): 0% | Distribution (%) of MIC (μg/ml) 0.13 (agar dilution on HBA): 0% | Distribution (%) of MIC (μg/ml) 1 (agar dilution on HBA): 0% | Distribution (%) of MIC (μg/ml) 2 (agar dilution on HBA): 0% | Distribution (%) of MIC (μg/ml) 4 (agar dilution on HBA): 0% | Distribution (%) of MIC (μg/ml) 8 (agar dilution on HBA): 0% | Distribution (%) of MIC (μg/ml) 32 (agar dilution on HBA): 0% | Distribution (%) of MIC (μg/ml) 64 (agar dilution on HBA): 0% | MIC50 [1]: 0.5 µg/mL and 0.50 µg/mL | MIC90 [1]: 0.5 µg/mL and 0.50 µg/mL

Polymyxin B
Distribution (%) of MIC (μg/ml) 0.03 (agar dilution on HBA): 0% | Distribution (%) of MIC (μg/ml) 0.06 (agar dilution on HBA): 0% | Distribution (%) of MIC (μg/ml) 0.13 (agar dilution on HBA): 0% | Distribution (%) of MIC (μg/ml) 0.25 (agar dilution on HBA): 0% | Distribution (%) of MIC (μg/ml) 1 (agar dilution on HBA): 0% | Distribution (%) of MIC (μg/ml) 2 (agar dilution on HBA): 0% | Distribution (%) of MIC (μg/ml) 4 (agar dilution on HBA): 21.74% | Distribution (%) of MIC (μg/ml) 8 (agar dilution on HBA): 56.52% | Distribution (%) of MIC (μg/ml) 32 (agar dilution on HBA): 8.70% | Distribution (%) of MIC (μg/ml) 64 (agar dilution on HBA): 0% | MIC50 [1]: 8 µg/mL | MIC90 [1]: 16 µg/mL

Reference: patent US20150284674A1, “CAMPYLOBACTER BACTERIA AND DETECTION” (priority 2012, published 2015)
